These are literature values, as cited in patent publication US8642030B2, “Compositions containing coenzyme Q-10 and dihydrolipoic acid” (EPC Europe GmbH, priority 2006, dated 2014).

The conditions of this data set: cited from earlier work.

Turning to `COC1=C(OC)C(=O)C(C/C=C(\C)CC/C=C(\C)CC/C=C(\C)CC/C=C(\C)CC/C=C(\C)CC/C=C(\C)CC/C=C(\C)CC/C=C(\C)CC/C=C(\C)CCC=C(C)C)=C(C)C1=O` [CoQ-10], the “solubility in most hydrophilic solvents such as water” value is on record as “sparingly soluble”.
